Earlier results on one substance are cited in US4663309A, “Novel peptide hormones with calcitonin-like activity” (University Patents, Inc., priority 1985, dated 1987).

The conditions of data set [1]: literature value; cited from earlier work.
Data set [2] addresses T1, calcitonin receptors (brain particulate fraction) (Rattus norvegicus, UniProt P32214).
T1 sequence (P32214 25-516): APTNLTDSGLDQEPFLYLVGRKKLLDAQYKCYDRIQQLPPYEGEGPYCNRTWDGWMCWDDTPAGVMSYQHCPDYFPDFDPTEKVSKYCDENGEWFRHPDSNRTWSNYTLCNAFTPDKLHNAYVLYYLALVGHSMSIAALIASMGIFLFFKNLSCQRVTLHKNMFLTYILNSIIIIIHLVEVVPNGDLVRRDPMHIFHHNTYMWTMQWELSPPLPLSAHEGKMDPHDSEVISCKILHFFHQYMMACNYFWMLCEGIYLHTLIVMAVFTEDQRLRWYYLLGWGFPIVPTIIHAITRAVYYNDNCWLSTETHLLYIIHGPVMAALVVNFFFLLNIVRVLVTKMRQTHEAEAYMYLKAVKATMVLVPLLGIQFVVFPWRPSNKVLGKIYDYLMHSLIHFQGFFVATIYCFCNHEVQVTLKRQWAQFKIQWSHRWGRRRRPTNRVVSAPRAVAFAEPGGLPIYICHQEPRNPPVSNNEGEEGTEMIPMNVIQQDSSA
Further details: from tissue. The conditions noted are these: rat brain homogenates; literature value; read-out: IC50, [125I]-SCT-I binding to rat brain, value found by Nakamuta et al.; cited from earlier work.

In general, IC50 refers to the concentration that inhibits the measured activity by half. For the substance porcine calcitonin [PCT], the “α-helicity in 50% 2-chloroethanol (Brewer and Edelhoch)” value in data set [1] is 50%. For the same substance, in data set [2], the IC50 was 17 nM.
